# Laboratory results reported in ChEMBL document CHEMBL1201862, “PubChem BioAssay data set” (2004).
#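 Five concentrations, 48 hours, 96-well plates. The concentration for 50% growth inhibition is given as GI50.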 Activity calls are given as the source filed them. No stated cut-off is given here; in the data, active = GI50 up to about 1.1 µM and inactive = higher.
# Experiments:
# Assay in all cases: growth of human tumour cells (NCI), 48 h
# [1] = system: A498
# [2] = system: BT-549
# [3] = system: CAKI-1
# [4] = system: CCRF-CEM
# [5] = system: EKVX
# [6] = system: HCT-116
# [7] = system: HT-29
# [8] = system: IGROV-1
# [9] = system: MDA-MB-435
# [10] = system: NCI-H23
# [11] = system: NCI-H460
# [12] = system: OVCAR-3
# [13] = system: OVCAR-5
# [14] = system: OVCAR-8
# [15] = system: PC-3
# [16] = system: SK-MEL-28
# [17] = system: SK-OV-3
# [18] = system: SN12C
# [19] = system: U-251
# [20] = system: UACC-257
Compound,GI50 [1],GI50 [2],GI50 [3],GI50 [4],GI50 [5],GI50 [6],GI50 [7],GI50 [8],GI50 [9],GI50 [10],GI50 [11],GI50 [12],GI50 [13],GI50 [14],GI50 [15],GI50 [16],GI50 [17],GI50 [18],GI50 [19],GI50 [20]
C=C1CC2(CCOc3ccc(Cl)cc32)OC1=O (stereo not given),11.9 µM (inactive),0.352 µM (active),2.33 µM (inactive),1.45 µM (inactive),3.42 µM (inactive),1.63 µM (inactive),5.86 µM (inactive),8.57 µM (inactive),2.82 µM (inactive),5.22 µM (inactive),3.61 µM (inactive),1.39 µM (inactive),10.6 µM (inactive),4.59 µM (inactive),1.95 µM (inactive),8.38 µM (inactive),13.1 µM (inactive),7.69 µM (inactive),8.63 µM (inactive),5.74 µM (inactive)
Cc1nc2ccccc2n1Cc1ccc(NC(=S)NC2CCCCC2)cc1,33.6 µM (inactive),15.4 µM (inactive),38 µM (inactive),10 µM (inactive),12.3 µM (inactive),34.9 µM (inactive),30.3 µM (inactive),20 µM (inactive),6.84 µM (inactive),17.5 µM (inactive),35.5 µM (inactive),10.8 µM (inactive),> 100 µM (inactive),30.9 µM (inactive),31.3 µM (inactive),29.7 µM (inactive),> 92.7 µM (inactive),7.03 µM (inactive),32.6 µM (inactive),13.5 µM (inactive)
O=c1c2cccnc2[nH]c2ccc3[nH]ncc3c12,8.49 µM (inactive),> 10 µM (inactive),7.45 µM (inactive),> 10 µM (inactive),9.33 µM (inactive),7.91 µM (inactive),> 10 µM (inactive),6.11 µM (inactive),> 10 µM (inactive),> 10 µM (inactive),> 10 µM (inactive),> 10 µM (inactive),> 10 µM (inactive),> 10 µM (inactive),> 10 µM (inactive),> 10 µM (inactive),> 10 µM (inactive),> 10 µM (inactive),> 10 µM (inactive),> 10 µM (inactive)
Cn1c(=O)c2sc3cc4c(cc3c2c2ccccc21)sc1c(=O)n(C)c2ccccc2c14,> 100 µM (inactive),19.8 µM (inactive),> 100 µM (inactive),40.1 µM (inactive),> 100 µM (inactive),67.5 µM (inactive),> 100 µM (inactive),65.9 µM (inactive),> 100 µM (inactive),45.7 µM (inactive),52.4 µM (inactive),> 100 µM (inactive),57.3 µM (inactive),41.7 µM (inactive),> 100 µM (inactive),> 100 µM (inactive),> 100 µM (inactive),> 100 µM (inactive),19 µM (inactive),> 100 µM (inactive)
O=C1c2c(O)cccc2C(C(=O)CCCC(=O)C2c3cccc(O)c3C(=O)c3c(O)cccc32)c2cccc(O)c21,0.957 µM (active),0.524 µM (active),1.27 µM (inactive),0.202 µM (active),0.608 µM (active),0.22 µM (active),0.746 µM (active),0.415 µM (active),0.746 µM (active),0.27 µM (active),0.0803 µM (active),0.158 µM (active),0.469 µM (active),0.492 µM (active),0.0787 µM (active),0.538 µM (active),0.353 µM (active),0.643 µM (active),0.212 µM (active),0.191 µM (active)
Oc1ccc(SCc2ccc(NCc3ccccc3)cc2)cc1,20.1 µM (inactive),31.8 µM (inactive),19.6 µM (inactive),1.24 µM (inactive),19.4 µM (inactive),46.6 µM (inactive),20 µM (inactive),45.5 µM (inactive),18.2 µM (inactive),24.7 µM (inactive),31 µM (inactive),30 µM (inactive),27.2 µM (inactive),37.8 µM (inactive),18.9 µM (inactive),63.8 µM (inactive),62.8 µM (inactive),24.5 µM (inactive),24.4 µM (inactive),29.9 µM (inactive)
O=C1C=CC=C/C1=C1\N=C(c2ccccc2OCC(=O)c2ccc(Br)cc2)SS1,> 100 µM (inactive),13.3 µM (inactive),34.6 µM (inactive),> 100 µM (inactive),89.9 µM (inactive),78.9 µM (inactive),> 100 µM (inactive),9.23 µM (inactive),> 100 µM (inactive),35.2 µM (inactive),> 100 µM (inactive),> 100 µM (inactive),> 100 µM (inactive),93.5 µM (inactive),> 100 µM (inactive),> 100 µM (inactive),34.3 µM (inactive),> 100 µM (inactive),40.3 µM (inactive),> 100 µM (inactive)
NC(CSC1c2ccccc2-c2ccccc21)C(=O)O (stereo not given),> 100 µM (inactive),> 100 µM (inactive),> 100 µM (inactive),> 100 µM (inactive),> 100 µM (inactive),> 100 µM (inactive),> 100 µM (inactive),> 100 µM (inactive),> 100 µM (inactive),> 100 µM (inactive),> 100 µM (inactive),> 100 µM (inactive),> 100 µM (inactive),> 100 µM (inactive),> 100 µM (inactive),> 100 µM (inactive),> 100 µM (inactive),> 100 µM (inactive),> 100 µM (inactive),> 100 µM (inactive)
CCCCCCCCCCCCCCNC(=O)CCC(NC(=O)c1ccc(N(C)Cc2cnc3nc(N)nc(N)c3n2)cc1)C(=O)NCCCCCCCCCCCCCC (stereo not given),14.5 µM (inactive),12.3 µM (inactive),10.4 µM (inactive),0.773 µM (active),23.9 µM (inactive),0.698 µM (active),4.13 µM (inactive),7.14 µM (inactive),0.207 µM (active),3.8 µM (inactive),0.363 µM (active),13.4 µM (inactive),19.2 µM (inactive),4.36 µM (inactive),0.665 µM (active),13.8 µM (inactive),10.4 µM (inactive),9.68 µM (inactive),2.24 µM (inactive),10.7 µM (inactive)
COC(=O)C(COC(=O)/C=C/c1ccc(OC(C)=O)c(OC(C)=O)c1)NC(=O)/C=C/c1ccc(OC(C)=O)c(OC(C)=O)c1 (stereo not given),> 100 µM (inactive),25.2 µM (inactive),18.5 µM (inactive),16.1 µM (inactive),25.5 µM (inactive),19.2 µM (inactive),19.8 µM (inactive),43.6 µM (inactive),28.3 µM (inactive),25.9 µM (inactive),21.3 µM (inactive),15.4 µM (inactive),38.7 µM (inactive),30.4 µM (inactive),13.6 µM (inactive),26.2 µM (inactive),67 µM (inactive),19.6 µM (inactive),28.4 µM (inactive),44.4 µM (inactive)
C=CC(=O)N1C/C(=C\c2ccc(F)cc2)C(=O)/C(=C/c2ccc(F)cc2)C1,0.568 µM (active),0.336 µM (active),0.475 µM (active),0.0883 µM (active),0.887 µM (active),0.0557 µM (active),0.071 µM (active),0.437 µM (active),0.299 µM (active),1.27 µM (inactive),0.593 µM (active),0.36 µM (active),0.622 µM (active),0.28 µM (active),0.215 µM (active),0.634 µM (active),0.711 µM (active),0.454 µM (active),0.188 µM (active),1.19 µM (inactive)
NC1=NCCN1CC(=O)O [CYCLOCREATINE],> 1000 µM (inactive),> 1000 µM (inactive),> 10000 µM (inactive),> 1000 µM (inactive),> 10000 µM (inactive),> 1000 µM (inactive),> 1000 µM (inactive),> 1000 µM (inactive),> 1000 µM (inactive),> 1000 µM (inactive),> 1000 µM (inactive),> 1000 µM (inactive),> 1000 µM (inactive),> 1000 µM (inactive),> 1000 µM (inactive),> 1000 µM (inactive),> 1000 µM (inactive),> 1000 µM (inactive),> 1000 µM (inactive),> 1000 µM (inactive)
